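Test compounds were applied to cells in 96-well plates for 48 hours at 5 doses. GI50 marks 50% less growth. At the TGI there is no net growth.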

What all share (test): NCI-60 cell line screen, 48 h
Assay [1] concerns CAKI-1 renal.
The test system of assay [2] is BT-549 breast.
Assay [3] deals with SF-539 CNS.
Assay [4] has as its system SR leukemia.
In assay [5] the test system is OVCAR-4 ovarian.
In assay [6] the test system is RPMI-8226 leukemia.
The test system of assay [7] is MALME-3M melanoma.
The subject of assay [8] is SF-295 CNS.
Assay [9] relates to LXFL 529 NSCLC.
Assay [10] relates to SNB-78 CNS.
Assay [11] relates to M19-MEL melanoma.
The subject of assay [12] is XF 498 CNS.

Regarding `CC1=C(c2ccccc2)NC(=S)C(C)C(c2ccccc2)=N1` (stereo not given), the TGI was greater than 100 µM in assay [1]; greater than 100 µM in [2]; 30.9 µM in [3]; greater than 100 µM in [4]; greater than 100 µM in assay [5]; 57.5 µM in [6]. Also, the TGI in [7] and in assay [8] was greater than 100 µM throughout.
For the compound `NC(=O)Cc1nc2c(N)ncnc2n1C1OC(CO)C(O)C1O` (stereo not given), the TGI in assay [1], in assay [2], in assay [3], in assay [4], in assay [5] and in assay [6] was greater than 100 µM in each case. In addition, the TGI in assay [7] and in assay [8] was greater than 100 µM throughout.
Consider `COC(=O)C1(C#N)C(C)(C)N=C(c2ccccc2)C12CCCCC2` (stereo not given), for which the TGI in [1], in assay [2], in assay [3], in [4], in assay [5] and in [6] was greater than 100 µM each time. Also, the TGI in assay [7] and in assay [8] was greater than 100 µM throughout.
Turning to `Cc1c2c(c(O)c3c(O)cccc13)C(=O)C1(O)C(O)=C(C(=O)NCNc3ccc(C(N)=O)cn3)C(=O)C(N(C)C)C1C2` (stereo not given), the TGI was 48.4 µM in assay [1]; 15.5 µM in assay [2]; 7.42 µM in [3]; 9.53 µM in assay [4]; 5.85 µM in assay [5]; 7.59 µM in [6]. Besides, the TGI in assay [7] is greater than 100 µM; in assay [8], 17.9 µM.
Turning to `CS(=O)(=O)c1ccc(N=C/C=C/Nc2ccc(S(C)(=O)=O)cc2)cc1`, the TGI in assay [1], in assay [2], in assay [3], in assay [4], in [5] and in assay [6] was greater than 100 µM throughout. Further, the TGI in assay [7] and in assay [8] was greater than 100 µM in each case.
With `C=CCN(C(=O)OC(C)(C)C)[C@H](C)C(=O)N[C@@H](C)C(=O)OC`, the TGI in assay [1], in assay [2], in assay [3], in assay [4], in [5] and in assay [6] was greater than 100 µM each time. Further, the TGI in assay [7] and in assay [8] was greater than 100 µM each time.
On to `COc1ccc(Cc2nnc(Nc3ccc(Br)cc3)[nH]c2=O)cc1OC`, for which the TGI in assay [1] was greater than 100 µM; in assay [2] it was greater than 31.6 µM; in assay [3], greater than 100 µM; in assay [4], greater than 94.3 µM; in assay [5], greater than 100 µM; in assay [6] it was greater than 100 µM. For the same compound, the TGI in assay [7] and in [8] was greater than 100 µM each time.
Consider `CN(/N=C/c1cccc2cccnc12)c1ccc(Cl)cc1[N+](=O)[O-]`, for which the TGI in assay [1], in assay [2], in assay [3], in assay [4], in assay [5] and in [6] was greater than 100 µM each time. Besides, the TGI in assay [7] and in assay [8] was greater than 100 µM in each case.
Consider `Cc1c(N2CCN(C)CC2)nc2ccc(Cl)cc2c1-c1ccccc1`, for which the TGI in assay [9] is 31.7 µM; in assay [1], 41.6 µM; in assay [3] it was 33.9 µM; in [10], 39.8 µM; in [4], 39.2 µM; in assay [5], 36.9 µM. Also, the values for the TGI in assay [6], in assay [7] and in assay [8] were 44.9 µM, 35.7 µM and 31.2 µM, respectively.
In the case of `COc1ccccc1C1ON=C(c2ccc([N+](=O)[O-])cc2)N1C12CC3CC(CC(C3)C1)C2` (stereo not given), the TGI in assay [1], in assay [2], in assay [3], in assay [4], in assay [5] and in assay [6] was greater than 100 µM throughout. Further, the TGI in assay [7] and in [8] was greater than 100 µM each time.
For `C/C(CC(O)(/C=N/O)c1ccccc1)=N/O` (stereo not given), the TGI in assay [1], in assay [2], in [3], in [4], in assay [5] and in [6] was greater than 100 µM each time. The TGI in assay [7] and in [8] was greater than 100 µM throughout.
`CCOC(=O)C1(C(=O)OCC)OC(C)=NC1(C(=O)OC)C(=O)OC`: the TGI in assay [1] is greater than 100 µM; in assay [2], greater than 31.6 µM; in assay [3], greater than 100 µM; in [4] it was greater than 100 µM; in assay [5], greater than 100 µM; in [6], greater than 24.6 µM. The TGI in assay [7] and in assay [8] was greater than 100 µM each time.
As for `N#CC(=N)c1ncn(-c2ccc(N)cc2)c1N`, the TGI in assay [1], in assay [2], in assay [3], in assay [4], in assay [5] and in [6] was greater than 100 µM throughout. Further, the TGI in assay [7] and in assay [8] was greater than 100 µM each time.
As to `CCOC(=O)C1=NN(c2ccc([N+](=O)[O-])cc2)[C@@]2(C)C[C@]3(c4ccccc4)N(c4ccc([N+](=O)[O-])cc4)N=C(C(=O)OCC)N3c3ccccc3N12`, the TGI in [1], in [2], in assay [3], in assay [4], in assay [5] and in assay [6] was greater than 100 µM throughout. For the same compound, the TGI in [7] and in assay [8] was greater than 100 µM each time.
`O=C1CSC(c2ccccc2[N+](=O)[O-])N1c1ccc(-c2ccc(-n3c(-c4ccccc4)nc4ccccc4c3=O)cc2)cc1` (stereo not given): the TGI in assay [1], in [2], in [3], in assay [4], in assay [5] and in [6] was greater than 100 µM each time. Further, the TGI in [7] and in assay [8] was greater than 100 µM throughout.
`COC(=O)c1cc(C(=CCC[C@H]2CC[C@@]3(C)C(CCC4C3CC[C@@]3(C)C4CC[C@@H]3C(C)CCCC(C)C)C2)c2cc(Cl)c(O)c(C(=O)OC)c2)cc(Cl)c1O` (stereo not given in full): the TGI in [1], in [2], in [3], in assay [4], in assay [5] and in assay [6] was greater than 10 µM each time. Besides, the TGI in [7] and in assay [8] was greater than 10 µM each time.
For the compound `CC(=O)Nc1c(C)cc2c(nc3n2CCC3OC(C)=O)c1[N+](=O)[O-]` (stereo not given), the TGI in assay [1], in assay [2], in [3], in [4], in assay [5] and in assay [6] was greater than 100 µM throughout. For the same compound, the TGI in assay [7] and in assay [8] was greater than 100 µM in each case.
In the case of `COc1ccc(-c2cc(=O)c3cc(OC)ccc3[nH]2)cc1`, the TGI in assay [9], in assay [11], in assay [10], in assay [4], in assay [5] and in assay [6] was greater than 100 µM each time. The TGI in assay [7] and in assay [8] was greater than 100 µM each time.
On to `CC(C)=CCC/C(C)=C/CC/C(C)=C/CC/C(C)=C/CC/C(C)=C/CC/C(C)=C/CC/C(C)=C/CC/C(C)=C/CC/C(C)=C/CO`, for which the TGI in assay [1], in assay [2], in assay [3], in assay [4], in assay [5] and in assay [6] was greater than 100 µM in each case. For the same compound, the TGI in [7] and in [8] was greater than 100 µM each time.
Turning to `C=C(CCC/C(C)=C/C=C/[C@@H](C)CCCc1ccoc1)C[C@@H]1OC(=O)[C@H](C)[C@@H]1O`, the TGI in assay [1] is 20.1 µM; in [2], 17.1 µM; in assay [3], 19.4 µM; in assay [4] it was greater than 50 µM; in assay [5] it was 20.1 µM; in assay [6] it was 43.4 µM. Besides, the TGI in assay [7] was 18.1 µM; in [8], 19.1 µM.
For the compound `CC(C)=CC(Cc1ccccc1)S(=O)(=O)c1nc2ccccc2s1` (stereo not given), the TGI in assay [1] is 22.1 µM; in assay [2], 38.6 µM; in [3] it was 30.8 µM; in [4] it was 5.24 µM; in assay [5], 37.1 µM; in assay [6], 35 µM. Besides, the TGI was found to be 32.1 µM in assay [7] and 66.6 µM in assay [8].
For the compound `CC1(C)Cc2nc3c(cc2C(=O)C1C=N/C(C#N)=C(\N)C#N)C(=O)C(C=N/C(C#N)=C(\N)C#N)C(C)(C)C3` (stereo not given), the TGI in assay [1] is 3.54 µM; in assay [2], 5.51 µM; in assay [3], 2.41 µM; in [4], greater than 100 µM; in assay [5] it was greater than 100 µM; in assay [6], greater than 27.7 µM. Moreover, the TGI came out at 2.84 µM in [7] and 7.56 µM in [8].
In the case of `COc1ccccc1-c1cc(=O)c2cc3c(cc2[nH]1)OCO3`, the TGI in assay [9] is greater than 100 µM; in assay [11] it was greater than 100 µM; in assay [3], 70.6 µM; in assay [4] it was greater than 100 µM; in [5], 92 µM; in assay [12], 75.5 µM. In addition, the TGI is greater than 100 µM in assay [6], greater than 100 µM in assay [7] and 62.6 µM in assay [8]. In addition, the GI50 in assay [8] is 21.1 µM.
As for `COc1cc(NCCC2CCCCN2)c2ncccc2c1` (stereo not given), the TGI was greater than 100 µM in assay [1]; greater than 100 µM in assay [2]; greater than 100 µM in assay [3]; greater than 81.3 µM in [4]; greater than 100 µM in assay [5]; greater than 68.1 µM in assay [6]. For the same compound, the TGI in assay [7] is greater than 57.6 µM; in assay [8], greater than 100 µM.
For the compound `C/C=C(\C)C(O)C(C)C(O)C/C=C(C)/C=C(\C)C/C(C)=C/C/C=C(\C)C(O)C(C)c1ccc(CCC)c(=O)o1` (stereo not given), the TGI was 31.8 µM in assay [1]; 25 µM in assay [2]; 28.2 µM in assay [3]; greater than 100 µM in [4]; 65.4 µM in [5]; greater than 100 µM in assay [6]. The TGI in assay [7] is 27.1 µM; in assay [8], 16.9 µM.
As to `COC1C(O)C(n2ncc3c(SC)nc(SC)nc32)OC1C(O)CO` (stereo not given), the TGI in assay [11], in assay [3], in [10], in [5], in assay [12] and in assay [6] was greater than 100 µM in each case. Further, the TGI in [7] and in [8] was greater than 100 µM in each case.
Consider `COC1CN(C)C(=Nc2cccc3ccccc23)S1` (stereo not given), for which the TGI in assay [1], in assay [2], in [3], in assay [4], in [5] and in assay [6] was greater than 10 µM throughout. For the same compound, the TGI in [7] and in assay [8] was greater than 10 µM in each case.
On to `Cc1cccc2c1c(=O)c1c(O)c3c(cc1n2C)OC(C)(C)C=C3`, for which the TGI in assay [1], in assay [2], in [3], in [4], in assay [5] and in assay [6] was greater than 10 µM each time. The TGI in [7] and in assay [8] was greater than 10 µM each time.
Regarding `Cc1cc(/C=C/c2cc[n+](C)c3ccccc23)c(O)c2ncccc12`, the TGI in assay [9] worked out at 16 µM; in assay [1], 27.6 µM; in [11] it was 8.52 µM; in [3] it was 1.99 µM; in assay [10], 27.1 µM; in assay [4], 4.3 µM. For the same compound, the TGI amounted to 32.4 µM in [5], 6.41 µM in assay [6], 12.4 µM in assay [7] and 15.5 µM in [8].
As to `Cc1ccc(O)c(C2=CC(c3cccc(Cl)c3)SC(N)=N2)c1` (stereo not given), the TGI in [1] was greater than 100 µM; in assay [2], 85 µM; in assay [3], 53.1 µM; in assay [4], 46.5 µM; in assay [5] it was 23.6 µM; in [6], 42.6 µM. Besides, the values for the TGI in assay [7] and in assay [8] were 62.5 µM and 36.9 µM, respectively.

For the origin of these results see PubChem BioAssay (NCI).
